Results on seven compounds are retold here after patent US20240043527A1 (BioNTech SE, priority 2020, published 2024).

For data set [1], the system named is pancreatic cancer cell lines. The note with it: cited from earlier work; for de novo CLDN-18.2 expression: CLDN-18.2-negative cell lines; for CLDN-18.2 expression levels: pancreatic cancer cell lines with existing expression.
The test system of data set [2] is locally advanced, unresectable or metastatic pancreatic cancer. The conditions noted are these: erlotinib versus placebo; cited from earlier work.
The next data set relates to advanced BTC. The conditions noted are these: first-line treatment of advanced disease; cited from earlier work.
For data set [3] the following is noted: cited from earlier work.
Data set [4] concerns gastric and gastro-esophageal cancer. The conditions noted are these: cited from earlier work.
The conditions of data set [5]: cited from earlier work. This is another data set of the same source.
For a further data set, the system named is CLDN-18.2+ cells. The note with it: in serum; Sahin et al. 2018; cited from earlier work.
Data set [6] has as its target first extracellular domain (ECD1) of CLDN-18.2 (Homo sapiens, UniProt P56856). The conditions noted are these: cited from earlier work.
In a further data set the test system is MDA-MB-231 cells. Put plainly: Ex vivo ADCC assay with serum of dosed non-human primates, target-negative control cells. It counts as cell-based. The conditions noted are these: FIG. 5 Panel C dilution row. On the procedure:
(§1) Non-Human Primates (NHP) received three repetitive doses of 0.1, 0.4 or 1.6 mg/kg RB_RMAB01 once weekly. RiboMab01-containing serum of all monkeys sampled 24 hours (black bars) and 168 hours (white bars) post 1st injection was directed to luciferase-based ex vivo ADCC assays. […] Human PBMCs from two different healthy donors (24 h, donor 1, 168 h, donor 2) served as effector cells. (Panel A) RiboMab01-mediated ADCC of NUG-C4 cells after 48 hours incubation is shown. (Panel B) Unspecific lysis on target-negative MDA-MB-231 cells is shown. Error bars are standard error of the mean (n=3). (Panel C) Serum of NHP No. 14 (1.6 mg/kg RB_RMAB01, RiboMab01 serum concentration 232 μg/mL) collected 48 hours after the 3rd dosing was used for a luciferase-based ex vivo ADCC assays. […] Human PBMCs of a healthy donor served as effector cells. […] Incubation time was 48 hours. Error bars are standard errors of the mean (n=3).
(§2) ADCC assays were performed as described in Example 2. […] Purified IMAB362 served as assay reference protein.

Data set [7] relates to CLDN-18.2+ NUG-C4 transfectants. Put plainly: Ex vivo ADCC assay with serum of dosed non-human primates. It counts as cell-based. The note with it: serum of monkey No. 14 (1.6 mg/kg) 48 hours after 3rd dosing or recombinant reference protein; 48 hours incubation. On the procedure: as §1, §2
The target in data set [8] is CLDN-18.2+ NUG-C4 transfectants. Kind of data set: In vitro ADCC assay (luciferase-based). It counts as cell-based, human. The note with it: human PBMCs from three donors, E:T 30:1, 48 hours. How it is done: RiboMab01-containing cell culture supernatant from CHO-K1 cells lipofected with RB_RMAB01 was subjected to (Panel A) ADCC and (Panel B) CDC assays. […] Human PBMCs of three different healthy donors were utilized as effector cells (E:T ratio 30:1). Target or control and effector cells were incubated for 48 hours with the indicated RiboMab01 and IMAB362 reference protein concentrations. Specific cell lysis as determined in a luciferase-based assay is shown. […] Target and control cells were incubated with human serum and RiboMab01 concentrations as indicated for 2 hours. CDC determined in a luciferase-based assay is shown. Error bars are standard errors of the mean (n=3).
Mode of action analysis: Antibody-dependent cellular cytotoxicity (ADCC) and complement-dependent cytotoxicity (CDC) in vitro. […] To simulate in vivo conditions, human PBMCs from three different healthy donors were used as effector cells in ADCC assays in an effector to target (E:T) ratio of 30:1 and human serum (e.g., commercially available human serum) was used as a source of complement in CDC assays.

Data set [9] can be described thus: Apparent pKa of the amino lipid. It counts as physicochemical.
Another data set concerns PDAC. The note with it: metastasized stage; Conroy et al. 2011; cited from earlier work.
Where [10] appears, read: ≥70% CLDN-18.2 expression subset, vs EOX, p<0.0005.

As for `O=C1[O][Pt]2([NH][C@@H]3CCCC[C@H]3[NH]2)[O]C1=O` [oxaliplatin], in data set [1], the “de novo CLDN-18.2 expression” value is “not observed to increase de novo expression” and the CLDN-18.2 expression levels entry is recorded as “upregulate existing CLDN-18.2 expression levels”.
For `C#Cc1cccc(Nc2ncnc3cc(OCCOC)c(OCCOC)cc23)c1` [erlotinib], in [2], the “median overall survival (OS) benefit” value is 0.4 month and the “median progression-free survival (PFS) benefit” value is 0.3 month.
As to `O=c1[nH]cc(F)c(=O)[nH]1` [5-fluorouracil], in data set [1], the “de novo CLDN-18.2 expression” value was “not observed to increase de novo expression” and the CLDN-18.2 expression levels entry is reported as “upregulate existing CLDN-18.2 expression levels”.
In the case of `Nc1ccn([C@@H]2O[C@H](CO)[C@@H](O)C2(F)F)c(=O)n1` [gemcitabine], in the data set on advanced BTC, the “median OS” value is 8.1 months. Further, in [1], the “de novo CLDN-18.2 expression” value is “not observed to increase de novo expression” and the CLDN-18.2 expression levels result is “upregulate existing CLDN-18.2 expression levels”.
Broadly, the EC50 is the concentration that produces a half-maximal response. For “IMAB362: full IgG1 monoclonal antibody targeting CLDN-18.2; used as recombinant reference protein”, in data set [3] (12 patients, 600 mg/m^2 dose), the “patients with grade 3 vomiting” value is listed as 22%. In data set [3] (TEAE), the patients with fatigue is given as 22%, the patients with nausea was 61% and the patients with vomiting is 50%. In addition, the “patients with grade 3 nausea” value in [3] (eight patients, 600 mg/m^2 dose) is reported as 15%. Moreover, the “patients with treatment emergent adverse events (TEAEs)” value in [3] (n=44/54) was 82%. Moreover, the “change of median overall survival” value in [4] (patients with ≥70% of tumor cells with ≥2+ CLDN-18.2 staining) was “near-doubling”. For the same compound, in data set [4] (setting [10]), the “benefit in overall survival (OS)” value is listed as 33.1 weeks and the “delay in central independent reviewed progression” value is 14.5 weeks. The cmax result in data set [5] (repeated doses up to 1000 mg/m^2 q3w) was “up to 603 μg/mL”. Moreover, in [5] (single agent and in combination with chemotherapy), the “tolerability across various trials” value is listed as “well tolerated”. Besides, in the data set on CLDN-18.2+ cells, the “ADCC EC95 (concentration that gives 95% response)” value was 0.3 to 28 µg/mL. Moreover, in data set [6], the “binding to other claudin family members including CLDN18.1” value is “does not bind”; the “recognition of ECD1 of CLDN-18.2” value was “high affinity and specificity”. Besides, the “unspecific lysis on control cells” value in the data set on MDA-MB-231 cells is “weak unspecific lysis”. Besides, the concentration giving a half-maximal response (EC50) in data set [7] worked out at 0.151 nM. In [8], the “ADCC EC50” value fell in the range of 0.014 to 0.265 µg/mL.
For orientation: pKa means the negative logarithm of the acid dissociation constant. In the case of `CCCCCCC(CCCC)C(=O)OCCCCCCCCCN(CCCO)CCCCCCCCCOC(=O)C(CCCC)CCCCCC` (stereo not shown) [Cationic Lipid A, ((3-Hydroxypropyl)azanediyl)bis(nonane-9,1-diyl)bis(2-butyloctanoate)], in [9], the pKa is around 6.25.
For FOLFIRINOX, the “median survival compared to gemcitabine alone” value in the data set on PDAC was “nearly double median survival”.
